pIC50: −log10 of the molar value. The source made the active and inactive calls. The calls are words filed in the database; no cut-off is given here.
Legend:
[1] = biological target: Phosphatidylinositol 4,5-bisphosphate 3-kinase catalytic subunit gamma isoform (Homo sapiens, UniProt P48736); assay: Inhibition of recombinant human His-tagged PI3K p110gamma expressed in baculovirus using PIP2 as substrate after 1 hr by kinase-glo luminescence assay
SK-OV-3 [2] = assay: Antitumor activity against human SKOV3 cells xenografted in BALB/c nude mouse assessed as tumor growth inhibition at 15 mg/kg/day, po for 24 days measured every 3 days during compound dosing relative to control; assay type: functional; conditions: SK-OV-3, po, read-out: TGI
SK-OV-3 [3] = assay: cells; conditions: Homo sapiens, SK-OV-3, 72 h
U-87 MG [4] = assay: Antitumor activity against human U87MG cells xenografted in BALB/c nude mouse assessed as tumor growth inhibition administered po for 18 days measured every 3 days during compound dosing; assay type: functional, organism-based; conditions: U-87MG ATCC
[5] = biological target: PI3-kinase p110-delta/p85-alpha (Homo sapiens, UniProt O00329); assay: Inhibition of recombinant full length human N-terminal His6-tagged PI3K p110delta/p85alpha expressed in baculovirus infected Sf21 cells using PIP2 as substrate after 2 hrs by kinase-glo luminescence assay
[6] = Clearance in Sprague-Dawley rat at 2 mg/kg, iv by LC-MS/MS analysis; assay type: ADME, organism-based; conditions: in vivo
[7] = biological target: Serine/threonine-protein kinase mTOR (Homo sapiens, UniProt P42345); assay: Inhibition of recombinant human N-terminal FLAG-tagged mTOR (1362 to end residues) expressed in baculovirus infected Sf21 insect cells assessed as reduction in ULight-4E-BP1 phosphorylation after 30 mins by lance ultra assay
LNCaP = assay: cells; conditions: Homo sapiens, 72 h
Homo sapiens [8] = organism: Homo sapiens; assay: Inhibition of PI3K in human SKOV3 cells assessed as reduction in Akt phosphorylation at T308 after 24 hrs by Western blot analysis; assay type: cell-based
Mus musculus [9] = assay: Toxicity in BALB/c nude mouse xenografted with human SKOV3 cells assessed as body weight loss at 15 to 60 mg/kg/day, po for 24 days measured every 3 days during compound dosing; assay type: organism-based; conditions: in vivo
Mus musculus [10] = assay: In vivo inhibition of PI3K in BALB/c nude mouse xenografted with human SKOV3 cells assessed as reduction in S6RP phosphorylation at Ser235/236 administered po for 24 days in tumors by immunohistochemical analysis; assay type: functional, organism-based
SK-OV-3 [11] = assay: Antitumor activity against human SKOV3 cells xenografted in BALB/c nude mouse assessed as TUNEL positive cells at 15 to 60 mg/kg/day, po for 24 days; assay type: functional, organism-based
SK-OV-3 [12] = assay: Antitumor activity against human SKOV3 cells xenografted in BALB/c nude mouse assessed as tumor growth inhibition at 60 mg/kg/day, po for 24 days measured every 3 days during compound dosing relative to control; assay type: functional; conditions: SK-OV-3, po, read-out: TGI
SK-OV-3 [13] = assay: Antitumor activity against human SKOV3 cells xenografted in BALB/c nude mouse assessed as decrease in cell proliferation administered po for 24 days by Ki67 staining based assay; assay type: functional, organism-based
[14] = biological target: PI3-kinase p110-alpha/p85-alpha (Homo sapiens, UniProt P42336); assay: Inhibition of full length recombinant human N-terminal His-tagged PI3K p110alpha/p85alpha expressed in baculovirus using PIP2 as substrate after 1 hr by kinase-glo luminescence assay
Mus musculus [15] = assay: In vivo inhibition of PI3K in BALB/c nude mouse xenografted with human SKOV3 cells assessed as reduction in Akt phosphorylation at S473 in tumors administered po for 24 days by immunohistochemical analysis; assay type: functional, organism-based
U-87 MG [16] = assay: cells; conditions: Homo sapiens, 72 h
Homo sapiens [17] = organism: Homo sapiens; assay: Inhibition of PI3K in human SKOV3 cells assessed as reduction in S6 phosphorylation after 24 hrs by Western blot analysis; assay type: cell-based
Mus musculus [18] = assay: Toxicity in BALB/c nude mouse xenografted with human U87MG cells assessed as body weight loss at 20 to 40 mg/kg/day, po for 18 days measured every 3 days during compound dosing; assay type: organism-based; conditions: in vivo
PC-3 = assay: cells; conditions: Homo sapiens, PC-3, 72 h
SK-OV-3 [19] = assay: Antitumor activity against human SKOV3 cells xenografted in BALB/c nude mouse assessed as tumor growth inhibition administered via po for 24 days measured every 3 days during compound dosing; assay type: functional, organism-based
[20] = Oral bioavailability in Sprague-Dawley rat at 10 mg/kg by LC-MS/MS analysis; assay type: ADME, organism-based; conditions: in vivo
[21] = Volume of distribution at steady state in Sprague-Dawley rat at 2 mg/kg, iv by LC-MS/MS analysis; assay type: ADME, organism-based; conditions: in vivo, read-out: Vdss
Homo sapiens [22] = organism: Homo sapiens; assay: Inhibition of PI3K in human U87MG cells assessed as reduction in Akt phosphorylation at S473 after 24 hrs by Western blot analysis; assay type: cell-based
SK-OV-3 [23] = assay: Antitumor activity against human SKOV3 cells xenografted in BALB/c nude mouse assessed as tumor growth inhibition at 30 mg/kg/day, po for 24 days measured every 3 days during compound dosing relative to control; assay type: functional; conditions: SK-OV-3, po, read-out: TGI
Homo sapiens [24] = organism: Homo sapiens; assay: Inhibition of PI3K in human U87MG cells assessed as reduction in S6 phosphorylation after 24 hrs by Western blot analysis; assay type: cell-based
[25] = biological target: Phosphatidylinositol 4,5-bisphosphate 3-kinase catalytic subunit beta isoform (Homo sapiens, UniProt P42338); assay: Inhibition of PI3Kbeta (unknown origin) using PIP2 as substrate after 1 hr by ADP-Glo luminescence assay
Homo sapiens [26] = organism: Homo sapiens; assay: Inhibition of PI3K in human SKOV3 cells assessed as reduction in Akt phosphorylation at S473 after 24 hrs by Western blot analysis; assay type: cell-based
Homo sapiens [27] = organism: Homo sapiens; assay: Inhibition of PI3K in human U87MG cells assessed as reduction in Akt phosphorylation at T308 after 24 hrs by Western blot analysis; assay type: cell-based
U-87 MG [28] = assay: Antitumor activity against human U87MG cells xenografted in BALB/c nude mouse assessed as tumor growth inhibition at 40 mg/kg/day, po for 18 days measured every 3 days during compound dosing relative to control; assay type: functional, U-87MG ATCC; conditions: read-out: TGI
[29] = Cmax in Sprague-Dawley rat at 10 mg/kg, po by LC-MS/MS analysis; assay type: ADME, organism-based; set-up: dose 10 mg/kg, route oral; conditions: in vivo
U-87 MG [30] = assay: Antitumor activity against human U87MG cells xenografted in BALB/c nude mouse assessed as tumor growth inhibition at 20 mg/kg/day, po for 18 days measured every 3 days during compound dosing relative to control; assay type: functional, U-87MG ATCC; conditions: read-out: TGI
[31] = AUC in Sprague-Dawley rat at 10 mg/kg, po by LC-MS/MS analysis; assay type: ADME, organism-based; conditions: in vivo
[32] = Half-life in Sprague-Dawley rat at 2 mg/kg, iv by LC-MS/MS analysis; conditions: in vivo

Sequence of Phosphatidylinositol 4,5-bisphosphate 3-kinase catalytic subunit beta isoform (P42338 whole entry, canonical isoform): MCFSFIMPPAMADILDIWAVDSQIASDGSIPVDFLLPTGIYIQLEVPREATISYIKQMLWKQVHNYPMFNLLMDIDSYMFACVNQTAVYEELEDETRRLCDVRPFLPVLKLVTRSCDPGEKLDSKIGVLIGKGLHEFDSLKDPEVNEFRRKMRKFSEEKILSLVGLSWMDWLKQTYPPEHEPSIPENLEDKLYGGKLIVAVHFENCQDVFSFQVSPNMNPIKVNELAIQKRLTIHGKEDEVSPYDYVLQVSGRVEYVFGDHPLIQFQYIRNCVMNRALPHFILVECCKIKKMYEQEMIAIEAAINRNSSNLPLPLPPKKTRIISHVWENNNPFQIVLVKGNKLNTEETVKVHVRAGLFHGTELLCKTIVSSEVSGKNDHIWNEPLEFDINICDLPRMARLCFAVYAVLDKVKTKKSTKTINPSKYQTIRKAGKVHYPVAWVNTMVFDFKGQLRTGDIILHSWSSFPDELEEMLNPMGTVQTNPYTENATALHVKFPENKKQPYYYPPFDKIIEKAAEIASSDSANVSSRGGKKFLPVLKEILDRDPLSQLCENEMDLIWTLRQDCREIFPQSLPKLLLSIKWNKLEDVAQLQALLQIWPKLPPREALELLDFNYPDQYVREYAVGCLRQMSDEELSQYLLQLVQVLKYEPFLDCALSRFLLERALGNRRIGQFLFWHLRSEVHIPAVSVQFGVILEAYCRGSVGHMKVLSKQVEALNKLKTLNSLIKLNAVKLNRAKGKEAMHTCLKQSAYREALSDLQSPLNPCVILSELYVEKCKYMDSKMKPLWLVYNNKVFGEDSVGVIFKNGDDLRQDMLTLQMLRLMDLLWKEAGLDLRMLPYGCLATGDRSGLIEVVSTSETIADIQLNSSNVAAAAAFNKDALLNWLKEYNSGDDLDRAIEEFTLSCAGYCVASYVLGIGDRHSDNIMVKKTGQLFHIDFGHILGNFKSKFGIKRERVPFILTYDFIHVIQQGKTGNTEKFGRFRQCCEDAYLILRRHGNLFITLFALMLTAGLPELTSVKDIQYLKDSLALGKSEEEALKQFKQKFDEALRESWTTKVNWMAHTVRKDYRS
Sequence of Phosphatidylinositol 4,5-bisphosphate 3-kinase catalytic subunit gamma isoform (P48736 whole entry, canonical isoform): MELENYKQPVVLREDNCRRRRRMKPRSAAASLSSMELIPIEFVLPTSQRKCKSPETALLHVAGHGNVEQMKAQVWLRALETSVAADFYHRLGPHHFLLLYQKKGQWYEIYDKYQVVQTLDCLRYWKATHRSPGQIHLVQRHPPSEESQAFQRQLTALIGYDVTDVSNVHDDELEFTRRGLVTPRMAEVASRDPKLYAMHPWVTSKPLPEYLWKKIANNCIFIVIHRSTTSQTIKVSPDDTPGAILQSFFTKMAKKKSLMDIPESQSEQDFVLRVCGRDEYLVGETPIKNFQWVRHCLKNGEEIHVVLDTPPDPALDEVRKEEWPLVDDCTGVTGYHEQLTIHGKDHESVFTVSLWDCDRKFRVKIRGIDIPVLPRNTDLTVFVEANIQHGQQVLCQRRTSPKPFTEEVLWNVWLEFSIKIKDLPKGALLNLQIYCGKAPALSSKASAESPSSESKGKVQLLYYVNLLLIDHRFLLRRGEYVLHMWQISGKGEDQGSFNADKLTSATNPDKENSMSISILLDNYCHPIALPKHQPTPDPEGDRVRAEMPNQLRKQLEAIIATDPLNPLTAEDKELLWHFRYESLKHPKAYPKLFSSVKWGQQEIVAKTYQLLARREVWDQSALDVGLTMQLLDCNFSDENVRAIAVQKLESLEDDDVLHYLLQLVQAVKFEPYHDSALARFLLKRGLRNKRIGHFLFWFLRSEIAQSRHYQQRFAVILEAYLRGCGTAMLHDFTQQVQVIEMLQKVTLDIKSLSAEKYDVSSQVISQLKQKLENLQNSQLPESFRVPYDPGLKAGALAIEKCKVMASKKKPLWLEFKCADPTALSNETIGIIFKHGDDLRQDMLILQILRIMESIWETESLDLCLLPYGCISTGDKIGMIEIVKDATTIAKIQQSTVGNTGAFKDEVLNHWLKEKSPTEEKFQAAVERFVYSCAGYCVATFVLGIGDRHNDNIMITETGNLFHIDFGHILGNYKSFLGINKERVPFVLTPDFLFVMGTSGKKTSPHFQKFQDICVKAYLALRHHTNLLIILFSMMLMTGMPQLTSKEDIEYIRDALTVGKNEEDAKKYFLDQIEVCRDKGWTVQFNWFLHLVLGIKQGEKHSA
Sequence of PI3-kinase p110-delta/p85-alpha (P27986 whole entry): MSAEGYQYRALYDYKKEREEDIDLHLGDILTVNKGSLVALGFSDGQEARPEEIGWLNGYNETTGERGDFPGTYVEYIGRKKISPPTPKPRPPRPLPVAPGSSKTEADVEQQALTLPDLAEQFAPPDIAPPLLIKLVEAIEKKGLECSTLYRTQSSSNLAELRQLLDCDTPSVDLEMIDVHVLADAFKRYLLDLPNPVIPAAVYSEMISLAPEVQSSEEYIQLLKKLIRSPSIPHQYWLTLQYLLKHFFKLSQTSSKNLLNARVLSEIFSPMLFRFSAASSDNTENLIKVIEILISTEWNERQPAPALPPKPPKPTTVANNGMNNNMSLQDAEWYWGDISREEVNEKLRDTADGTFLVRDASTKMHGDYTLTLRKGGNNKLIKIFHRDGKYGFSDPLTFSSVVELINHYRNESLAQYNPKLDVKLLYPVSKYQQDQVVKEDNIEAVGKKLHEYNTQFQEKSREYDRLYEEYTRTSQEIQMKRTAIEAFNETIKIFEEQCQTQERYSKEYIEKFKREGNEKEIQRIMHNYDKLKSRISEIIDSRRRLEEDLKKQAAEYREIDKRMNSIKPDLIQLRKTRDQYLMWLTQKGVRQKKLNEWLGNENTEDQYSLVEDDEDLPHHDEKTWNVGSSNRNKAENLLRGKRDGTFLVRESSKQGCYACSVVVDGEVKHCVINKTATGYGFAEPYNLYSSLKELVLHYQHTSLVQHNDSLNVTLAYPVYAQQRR
Sequence of PI3-kinase p110-delta/p85-alpha (O00329 whole entry): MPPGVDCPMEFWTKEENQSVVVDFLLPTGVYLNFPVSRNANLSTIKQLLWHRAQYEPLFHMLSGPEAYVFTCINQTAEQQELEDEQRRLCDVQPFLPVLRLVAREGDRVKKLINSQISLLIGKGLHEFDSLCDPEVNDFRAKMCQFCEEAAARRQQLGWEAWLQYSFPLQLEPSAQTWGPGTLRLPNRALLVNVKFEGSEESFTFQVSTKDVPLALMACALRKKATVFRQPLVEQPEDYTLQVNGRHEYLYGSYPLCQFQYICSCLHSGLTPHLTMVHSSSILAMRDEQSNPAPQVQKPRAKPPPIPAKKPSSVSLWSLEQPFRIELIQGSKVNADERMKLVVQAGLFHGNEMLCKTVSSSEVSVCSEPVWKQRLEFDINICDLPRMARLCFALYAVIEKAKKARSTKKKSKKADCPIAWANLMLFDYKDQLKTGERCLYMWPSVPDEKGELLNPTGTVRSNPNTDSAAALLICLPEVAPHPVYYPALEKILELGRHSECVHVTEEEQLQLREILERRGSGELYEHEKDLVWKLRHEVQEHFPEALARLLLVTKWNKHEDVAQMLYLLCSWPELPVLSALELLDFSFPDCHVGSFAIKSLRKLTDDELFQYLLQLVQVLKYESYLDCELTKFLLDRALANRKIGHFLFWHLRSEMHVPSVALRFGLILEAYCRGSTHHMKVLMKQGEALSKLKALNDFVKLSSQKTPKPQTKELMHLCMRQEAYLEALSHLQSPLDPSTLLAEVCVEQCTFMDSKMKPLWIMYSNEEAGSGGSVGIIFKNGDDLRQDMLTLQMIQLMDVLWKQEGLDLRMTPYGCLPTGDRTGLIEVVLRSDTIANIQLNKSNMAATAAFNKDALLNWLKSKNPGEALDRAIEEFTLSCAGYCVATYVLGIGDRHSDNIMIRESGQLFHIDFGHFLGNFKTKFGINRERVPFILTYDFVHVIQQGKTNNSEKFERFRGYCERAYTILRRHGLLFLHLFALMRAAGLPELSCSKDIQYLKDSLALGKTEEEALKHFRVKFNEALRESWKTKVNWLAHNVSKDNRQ
Sequence of PI3-kinase p110-alpha/p85-alpha (P27986 whole entry): as the sequence (P27986 whole entry) above
Sequence of PI3-kinase p110-alpha/p85-alpha (P42336 whole entry): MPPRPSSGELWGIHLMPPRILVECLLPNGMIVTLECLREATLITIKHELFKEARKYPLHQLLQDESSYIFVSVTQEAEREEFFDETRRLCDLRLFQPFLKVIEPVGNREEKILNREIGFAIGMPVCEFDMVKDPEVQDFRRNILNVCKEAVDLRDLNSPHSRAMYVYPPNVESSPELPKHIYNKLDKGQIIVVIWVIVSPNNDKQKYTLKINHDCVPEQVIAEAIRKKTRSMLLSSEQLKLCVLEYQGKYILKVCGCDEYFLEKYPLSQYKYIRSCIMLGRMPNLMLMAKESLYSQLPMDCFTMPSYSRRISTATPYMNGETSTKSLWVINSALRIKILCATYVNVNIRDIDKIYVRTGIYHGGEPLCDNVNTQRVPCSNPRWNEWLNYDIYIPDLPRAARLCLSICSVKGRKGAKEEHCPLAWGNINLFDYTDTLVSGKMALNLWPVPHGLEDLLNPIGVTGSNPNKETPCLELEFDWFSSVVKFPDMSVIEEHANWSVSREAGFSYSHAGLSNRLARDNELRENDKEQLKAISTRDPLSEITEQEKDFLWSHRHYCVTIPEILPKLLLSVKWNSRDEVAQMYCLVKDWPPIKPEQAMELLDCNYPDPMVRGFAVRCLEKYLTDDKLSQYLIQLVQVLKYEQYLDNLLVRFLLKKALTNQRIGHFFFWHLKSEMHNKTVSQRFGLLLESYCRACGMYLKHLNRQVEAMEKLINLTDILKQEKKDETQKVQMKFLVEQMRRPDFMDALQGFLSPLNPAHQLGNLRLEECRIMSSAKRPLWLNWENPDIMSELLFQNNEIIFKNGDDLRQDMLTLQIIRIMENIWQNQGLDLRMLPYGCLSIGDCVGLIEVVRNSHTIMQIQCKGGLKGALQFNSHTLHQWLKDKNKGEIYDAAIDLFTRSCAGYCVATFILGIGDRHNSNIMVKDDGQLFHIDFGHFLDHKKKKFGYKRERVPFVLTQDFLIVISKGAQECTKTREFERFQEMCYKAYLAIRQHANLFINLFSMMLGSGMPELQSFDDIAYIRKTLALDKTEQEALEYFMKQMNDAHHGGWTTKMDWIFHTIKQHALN

pIC50 [1]: 7.12
pIC50 (SK-OV-3 [3]): 6.30
pIC50 [5]: 8.00
clearance [6]: 29 mL/min/kg
pIC50 [7]: 7.80
pIC50 (LNCaP): 6.68
pIC50 [14]: 7.82
pIC50 (U-87 MG [16]): 6.37
pIC50 (PC-3): 6.35
bioavailability [20]: 41%
Vd [21]: 4.4 L/kg
pIC50 [25]: 6.76
Cmax [29]: 1400 nM
AUC [31]: 5.2 µM·h
half-life [32]: 1.5 h
SMILES: C[C@@H]1CN(c2nc(N3CCOCC3)c3sc(-c4ccn[nH]4)cc3n2)C[C@H](C)O1
inhibition in vivo at 15 mg/kg/day (SK-OV-3 [2]): 48.5%
TGI (U-87 MG [4]): Dose-dependent effect
inhibition (Homo sapiens [8]): Dose-dependent effect
Activity (Mus musculus [9]): Non-Toxic
inhibition (Mus musculus [10]): Dose-dependent effect
Activity (SK-OV-3 [11]): Active
inhibition in vivo at 60 mg/kg/day (SK-OV-3 [12]): 89.6%
Activity (SK-OV-3 [13]): Dose-dependent effect
inhibition (Mus musculus [15]): Dose-dependent effect
inhibition (Homo sapiens [17]): Dose-dependent effect
Activity (Mus musculus [18]): Non-Toxic
TGI (SK-OV-3 [19]): Dose-dependent effect
inhibition (Homo sapiens [22]): Dose-dependent effect
inhibition in vivo at 30 mg/kg/day (SK-OV-3 [23]): 75.9%
inhibition (Homo sapiens [24]): Dose-dependent effect
inhibition (Homo sapiens [26]): Dose-dependent effect
inhibition (Homo sapiens [27]): Dose-dependent effect
inhibition in vivo at 40 mg/kg/day (U-87 MG [28]): 81.2%
inhibition in vivo at 20 mg/kg/day (U-87 MG [30]): 69.2%
